Data reported in PubChem BioAssay (NCI).
Values joined by “and” are separate entries in the source; they are usually repeats but may differ in a detail not shown here. Identical values can stand only once.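 Where inhibition never reached the appropriate level, the endpoint shown equals the highest concentration tested. Otherwise, values were interpolated linearly from a five-concentration, 48-hour dose response in 96-well plates. GI50 is the concentration that inhibits growth by half. Definition used: TGI = concentration required for complete inhibition of growth.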

What was measured:
Assay in all cases: NCI anticancer screen, dose series, 48 h
[1] = tested on: SF-268 CNS
[2] = tested on: EKVX NSCLC
[3] = tested on: KM20L2 colon
[4] = tested on: NCI-H522 lung
[5] = tested on: SNB-75 CNS
[6] = tested on: LOX IMVI melanoma
[7] = tested on: RXF 393 renal
[8] = tested on: HCC-2998 colon
[9] = tested on: SK-MEL-2 melanoma
[10] = tested on: DLD-1 colon

Compound | GI50 [1] | TGI [1] | GI50 [2] | TGI [2] | GI50 [3] | TGI [3] | GI50 [4] | TGI [4] | GI50 [5] | TGI [5] | GI50 [6] | TGI [6] | GI50 [7] | TGI [7] | GI50 [8] | TGI [8] | GI50 [9] | TGI [9] | TGI [10]
O=C([CH-]C(=O)c1ccccc1)c1ccccc1.[CH3-].[CH3-].[CH3-].[Sn+4] | 12.9 µM | 81.3 µM | 33.1 µM | > 100 µM | 16.3 µM | 58 µM | 11.8 µM | 24.2 µM | 19.4 µM | > 100 µM | 7.95 µM | 25.9 µM | 10.6 µM | 31.9 µM | 18.7 µM | 47.5 µM | 7.68 µM | 56.9 µM | –
CC(=O)[O][Hg][CH2]C1(C)COC(C)([CH2][Hg][O]C(C)=O)CO1 (centres undefined) | 4.73 µM | 9.17 µM | 18.4 µM | 36.3 µM | – | – | 12.1 µM | 33 µM | 17.7 µM | 34 µM | 1.21 µM | 2.67 µM | 1.45 µM | 7.08 µM | 15.7 µM | 30.2 µM | 4.31 µM | 16.4 µM | –
Cc1cccc(Cl)c1NC(=O)c1cccc([N+](=O)[O-])c1O | – | 96.5 µM | – | > 100 µM | – | > 100 µM | – | 50.4 µM | – | > 100 µM | – | 82.9 µM | – | 50.7 µM | – | > 100 µM | – | – | > 100 µM
CCOC(=O)Nc1ccc(C(=O)/C=C/c2ccccc2)cc1 | 23.8 µM | 69 µM | 37.5 µM | > 100 µM | – | – | 20.9 µM | 79.8 µM | 31.6 µM | > 100 µM | 8.7 µM | 33.1 µM | 22.5 µM | 49.1 µM | 17.1 µM | 31.6 µM | 25.9 µM | 69.7 µM | –
Cc1cccc2c(N=Nc3ccccc3[N+](=O)[O-])c(O)[nH]c12 | – | 33.3 µM | – | 33.6 µM | – | – | – | 2.85 µM | – | 31.9 µM | – | 27.1 µM | – | 16.6 µM | – | > 31.6 µM | – | > 71.1 µM | –
O=[N+]([O-])c1ccc2nc3ccscc-3c2c1 | – | > 100 µM | – | > 100 µM | – | 94.9 µM | – | 59.9 µM | – | – | – | 85.9 µM | – | – | – | 34.1 µM | – | 77.7 µM | > 100 µM
Cc1ccccc1NC(=O)C(=O)CC(=O)C1CCOC1=O (centres undefined) | – | > 100 µM | – | > 100 µM | – | > 100 µM | – | > 100 µM | – | > 100 µM | – | > 100 µM | – | > 100 µM | – | > 100 µM | – | > 100 µM | > 100 µM
CCOC(=O)N1CCc2cc(OC)c(OC)cc2/C1=C/c1ccc(OC)c(OC)c1 | – | > 100 µM | – | > 100 µM | – | > 100 µM | – | > 100 µM | – | > 100 µM | – | > 100 µM | – | > 100 µM | – | > 100 µM | – | > 100 µM | > 100 µM
O=c1oc2c(cc1-c1ccccc1)C(O)Oc1ccccc1-2 (centres undefined) | 16.3 µM | 83.6 µM | 28.1 µM | > 100 µM | – | – | 4.97 µM | 21.2 µM | 3.54 µM | 29 µM | 13 µM | > 100 µM | 2.42 µM | 6.41 µM | 3.55 µM | 19.3 µM | 5.81 µM | 30.6 µM | –
CC(C)(C)c1cc(-c2c3nc(c(-c4cc(C(C)(C)C)cc(C(C)(C)C)c4)c4ccc([nH]4)c(-c4cc(C(C)(C)C)cc(C(C)(C)C)c4)c4nc(c(-c5cc(C(C)(C)C)cc(C(C)(C)C)c5)c5ccc2[nH]5)C=C4)C=C3)cc(C(C)(C)C)c1 | – | > 100 µM | – | > 100 µM | – | > 100 µM | – | > 100 µM | – | > 100 µM | – | > 100 µM | – | > 100 µM | – | > 100 µM | – | > 100 µM | > 100 µM
CC1=C/C(O)CC(=O)Cc2nc(co2)C(=O)N2CCC=C2C(=O)OC(C(C)C)C(C)/C=C\C(=O)NC/C=C\1 (centres undefined) | 20.9 µM | 54.4 µM and 43.4 µM | 36.4 µM | > 100 µM and 53.3 µM | – | – | 15.2 µM | > 65.6 µM and 11.8 µM | 21.4 µM | > 100 µM | 12.9 µM | 34.7 µM and 36.1 µM | 27.8 µM | > 100 µM | 16.2 µM | 31.6 µM and 34.5 µM | 10.1 µM | > 100 µM | –
OCc1ncc(-c2ccccc2)s1 | > 100 µM | > 100 µM | > 100 µM | > 100 µM | – | – | > 100 µM | > 100 µM | > 100 µM | > 100 µM | > 100 µM | > 100 µM | > 100 µM | > 100 µM | > 100 µM | > 100 µM | > 100 µM | > 100 µM | –
Cc1cccc2cc3cccc(C(=O)NCCN(C)C)c3nc12 | – | 3.84 µM | – | 1.69 µM | – | 5.11 µM | – | 1.19 µM | – | 0.825 µM | – | 0.568 µM | – | 0.931 µM | – | 1.48 µM | – | 1.85 µM | 5.11 µM
NC(=S)N/N=C/c1ccc(OC(=O)COc2ccccc2)cn1 | 2.95 µM | > 100 µM | 40 µM | > 100 µM | – | – | 8.6 µM | 57.2 µM | 10.4 µM | > 100 µM | 3.48 µM | > 100 µM | 5.34 µM | > 100 µM | 8.37 µM | > 100 µM | > 100 µM | > 100 µM | –
CC(=O)OC1CC2(O)C(CCC3(C)C(c4ccc(=O)oc4)CCC32O)C2(C)CCC(OC3OC(CO)C(O)C(O)C3O)C=C12 (centres undefined) | 0.0112 µM | 0.04 µM | 0.0135 µM | 0.0419 µM | – | – | < 0.01 µM | 0.148 µM | 0.0333 µM | 0.192 µM | 0.0275 µM | 0.109 µM | 0.0199 µM | 0.0538 µM | 0.0735 µM | 0.419 µM | 0.0474 µM | 0.413 µM | –
CC(C)C[C@H]1C(=O)N2CCC[C@H]2[C@]2(O)O[C@](NC(=O)[C@@H]3C=C4c5cccc6[nH]c(Br)c(c56)C[C@H]4N(C)C3)(C(C)C)C(=O)N12 | – | > 100 µM | – | > 100 µM | – | – | – | > 100 µM | – | > 100 µM | – | > 100 µM | – | > 100 µM | – | > 100 µM | – | > 100 µM | –
CNC(C)[C@H]1CCC2C3CCC4C[C@@H](N(C)C(=O)c5ccccc5)CC[C@]4(C)C3CC[C@@]21C (some centres undefined) | 1.16 µM | 3.21 µM | 0.613 µM | 6.3 µM | – | – | 2.32 µM | 8.5 µM | 1.97 µM | 5.12 µM | 0.419 µM | 1.8 µM | 1.73 µM | 4.26 µM | 1.63 µM | 4.8 µM | 2.6 µM | 5.4 µM | –
